The subject of one test is lyase from M. costata. The test can be described thus: Relative degrading rates of the lyase from M. costata towards various substrates. Format: biochemical, Morchella costata. As to conditions: for degradation (AF detectable on TLC plates): incubated for 48 h; for activity (maltotetraose as 100%): purified fungal lyase, section B.1.4.3.
The subject of the next test is lyase from M. vulgaris. The test can be described thus: Relative degrading rates of the lyase from M. vulgaris towards various substrates. The format is biochemical, Morchella vulgaris. The settings on record: for degradation (AF detectable on TLC plates): incubated for 48 h; for Activity (%) (maltotetraose = 100%): all substrates 10 mg ml^−1. The protocol:
The activity observed for maltotetraose is treated as 100%. The final concentration of all substrates was 10 mg ml^−1.

For test [1], the system named is lyase purified from the fungal infected algae. The test can be described thus: Effect of alcohols on activity and stability of the lyase (AF yield). The format is biochemical, fungal infected Gracilariopsis lemaneiformis. How it is done:
1-propanol, 2-propanol and 1-butanol were tested at the following concentrations (0%, 1%, 5% and 10%).
Ethanol was tested at the following concentrations (0, 1, 3, 5, 7, 9, 11, 13, 15%).

A further test has as its system α-1,4-glucan lyase. The test can be described thus: Activity of the lyase towards maltosaccharides (summary). The format is biochemical.
Test [2] relates to α-1,4-glucan lyase from the parasite-free red seaweed Gracilariopsis lemaneiformis. The test can be described thus: Degradation rates of the Californian algal lyase on various substrates. The settings on record: for AF released: substrate 10 mg/ml, pH 3.8, 40 min at 45° C. The format is biochemical. The protocol: Reaction conditions: The reaction mixture contained 10 mM of HOAc-NaOAc (pH 3.8). The substrate concentration was 10 mg/ml. The final volume was 100 ul after the addition of lyase and water. The reaction time was 40 min at 45° C.

Test [3] has as its system lyase from the fungal infected Gracilariopsis lemaneiformis. The test can be described thus: Reaction rates with glycogen and amylopectin, lyase from fungal infected Gracilariopsis lemaneiformis. Format: biochemical.

Marks after values point to notes of the source that are not given here.

Take `O=[N+]([O-])c1ccc(OC2OC(CO)C(OC3OC(CO)C(OC4OC(CO)C(OC5OC(CO)C(OC6OC(CO)C(OC7OC(CO)C(OC8OC(CO)C(O)C(O)C8O)C(O)C7O)C(O)C6O)C(O)C5O)C(O)C4O)C(O)C3O)C(O)C2O)cc1` (centres unmarked): the “degradation by the fungal lyase” value in the test with lyase from M. costata was “failed to degrade”. The “degradation (AF detectable on TLC plates)” value in the test on lyase from M. costata and in the test on lyase from M. vulgaris was “no AF detectable” each time.
With 1-butanol, the “increase of AF yield” value in test [1] (5%, after 3-day incubation) is 52%. Also, the “optimal concentration for AF yield” value in test [1] (tested at 0%, 1%, 5% and 10%) is on record as 5%.
For 1-propanol, the “AF yield” value in test [1] (1% (v/v), 1 day) came to 80 µmol; in test [1] (1% (v/v), 3 days), 280 µmol; in test [1] (1% (v/v), 6 days) it was 530 µmol; in test [1] (1% (v/v), 10 days), 803 µmol; in test [1] (5% (v/v), 1 day), 115 µmol; in test [1] (5% (v/v), 3 days), 367 µmol. In addition, the “AF yield” value is 605 µmol in test [1] (5% (v/v), 6 days); 853 µmol in test [1] (5% (v/v), 10 days); 107 µmol in test [1] (10% (v/v), 1 day); 307 µmol in test [1] (10% (v/v), 3 days); 456 µmol in test [1] (10% (v/v), 6 days); 583 µmol in test [1] (10% (v/v), 10 days). The “increase of AF yield” value in test [1] (5%, after 6 days of incubation) turned out to be 34%. Moreover, the “optimal concentration for AF yield” value in test [1] (tested at 0%, 1%, 5% and 10%) is 5%.
In the case of `CC(C)O` [2-propanol], the “increase of AF yield” value in test [1] (1%, after 10 days incubation) came out at 20%. Moreover, the “optimal concentration for AF yield” value in test [1] (tested at 0%, 1%, 5% and 10%) worked out at 1%.
For `CCO` [Ethanol], the “increase of AF yield” value in test [1] (3%, 10 days incubation) came out at 16%; in test [1] (5%, 7 days incubation) it was 12%. The “optimal concentration for AF yield” value was 5% in test [1] (7 days incubation, tested 0-15%) and 3% in test [1] (10 days incubation, tested 0-15%).
`OC[C@H]1O[C@H](O[C@H]2[C@H](O)[C@@H](O)[C@@H](O[C@H]3[C@H](O)[C@@H](O)[C@@H](O[C@H]4[C@H](O)[C@@H](O)[C@@H](O[C@H]5[C@H](O)[C@@H](O)[C@@H](O[C@H]6[C@H](O)[C@@H](O)[C@@H](O[C@H]7[C@H](O)[C@@H](O)C(O)O[C@@H]7CO)O[C@@H]6CO)O[C@@H]5CO)O[C@@H]4CO)O[C@@H]3CO)O[C@@H]2CO)[C@H](O)[C@@H](O)[C@@H]1O` (some centres unmarked) [Maltoheptaose, maltoheptaose]: the “activity (maltotetraose as 100%)” value in the test on lyase from M. costata is given as 76%. For the same compound, the “relative degrading rate (maltotetraose = 100%)” value with lyase from M. costata (substrate 2 mg/ml) is recorded as 82.2%; with lyase from M. costata (substrate 4 mg/ml), 81.5%; in the test on lyase from M. costata (substrate 10 mg/ml), 75.7%. The “lyase activity towards maltosaccharide” value with α-1,4-glucan lyase was “lower activity”. For the same compound, the “AF released” value in test [2] was found to be 865 nmol. Besides, the “Activity (%) (maltotetraose = 100%)” value in the test with lyase from M. vulgaris was 73.9%.
As for `OC[C@H]1O[C@H](O[C@H]2[C@H](O)[C@@H](O)[C@@H](O[C@H]3[C@H](O)[C@@H](O)[C@@H](O[C@H]4[C@H](O)[C@@H](O)[C@@H](O[C@H]5[C@H](O)[C@@H](O)[C@@H](O[C@H]6[C@H](O)[C@@H](O)C(O)O[C@@H]6CO)O[C@@H]5CO)O[C@@H]4CO)O[C@@H]3CO)O[C@@H]2CO)[C@H](O)[C@@H](O)[C@@H]1O` (some centres unmarked) [Maltohexaose, maltohexaose], in the test on lyase from M. costata, the “activity (maltotetraose as 100%)” value is 97%. Further, the “relative degrading rate (maltotetraose = 100%)” value was found to be 86.6% with lyase from M. costata (substrate 2 mg/ml), 98.2% in the test on lyase from M. costata (substrate 4 mg/ml) and 95.9% in the test on lyase from M. costata (substrate 10 mg/ml). The “AF released” value in test [2] was 826 nmol. The “Activity (%) (maltotetraose = 100%)” value in the test on lyase from M. vulgaris stood at 92.4%.
With `OC[C@H]1O[C@H](O[C@H]2O[C@H](CO)[C@@H](O)[C@H](O)[C@H]2O)[C@H](O)[C@@H](O)[C@@H]1O` [Trehalose], the “degradation (AF detectable on TLC plates)” value in the test on lyase from M. costata and in the test with lyase from M. vulgaris was “no AF detectable” in each case. Further, the “degradation by the lyase” value in test [2] is given as “not able to degrade”.
As for `OC[C@H]1O[C@@H]2O[C@H]3[C@H](O)[C@@H](O)[C@@H](O[C@H]4[C@H](O)[C@@H](O)[C@@H](O[C@H]5[C@H](O)[C@@H](O)[C@@H](O[C@H]6[C@H](O)[C@@H](O)[C@@H](O[C@H]7[C@H](O)[C@@H](O)[C@@H](O[C@H]1[C@H](O)[C@H]2O)O[C@@H]7CO)O[C@@H]6CO)O[C@@H]5CO)O[C@@H]4CO)O[C@@H]3CO` [alpha-cyclodextrin], the “degradation (AF detectable on TLC plates)” value with lyase from M. costata and in the test with lyase from M. vulgaris was “no AF detectable” in each case. For the same compound, the “degradation by the lyase” value in test [2] is “not able to degrade”.
As for `OC[C@H]1O[C@@H]2O[C@H]3[C@H](O)[C@@H](O)[C@@H](O[C@H]4[C@H](O)[C@@H](O)[C@@H](O[C@H]5[C@H](O)[C@@H](O)[C@@H](O[C@H]6[C@H](O)[C@@H](O)[C@@H](O[C@H]7[C@H](O)[C@@H](O)[C@@H](O[C@H]8[C@H](O)[C@@H](O)[C@@H](O[C@H]1[C@H](O)[C@H]2O)O[C@@H]8CO)O[C@@H]7CO)O[C@@H]6CO)O[C@@H]5CO)O[C@@H]4CO)O[C@@H]3CO` [beta-cyclodextrin], the “degradation (AF detectable on TLC plates)” value in the test on lyase from M. costata and in the test on lyase from M. vulgaris was “no AF detectable” each time. Besides, the “degradation by the lyase” value in test [2] was “not able to degrade”.
As for `OC[C@H]1O[C@@H]2O[C@H]3[C@H](O)[C@@H](O)[C@@H](O[C@H]4[C@H](O)[C@@H](O)[C@@H](O[C@H]5[C@H](O)[C@@H](O)[C@@H](O[C@H]6[C@H](O)[C@@H](O)[C@@H](O[C@H]7[C@H](O)[C@@H](O)[C@@H](O[C@H]8[C@H](O)[C@@H](O)[C@@H](O[C@H]9[C@H](O)[C@@H](O)[C@@H](O[C@H]1[C@H](O)[C@H]2O)O[C@@H]9CO)O[C@@H]8CO)O[C@@H]7CO)O[C@@H]6CO)O[C@@H]5CO)O[C@@H]4CO)O[C@@H]3CO` [gama-cyclodextrin], the “degradation (AF detectable on TLC plates)” value with lyase from M. costata and in the test with lyase from M. vulgaris was “no AF detectable” in each case. In addition, the “degradation by the lyase” value in test [2] is reported as “not able to degrade”.
As to `OC[C@H]1O[C@H](OC[C@H]2OC(O)[C@H](O)[C@@H](O)[C@@H]2O)[C@H](O)[C@@H](O)[C@@H]1O` (some centres unmarked) [isomaltose], the “degradation (AF detectable on TLC plates)” value in the test on lyase from M. costata and in the test with lyase from M. vulgaris was “no AF detectable” throughout. Moreover, the “degradation by the lyase” value in test [2] is given as “not able to degrade”.
`OC[C@H]1O[C@H](O[C@H]2[C@H](O)[C@@H](CO)OC(O)[C@@H]2O)[C@H](O)[C@@H](O)[C@@H]1O` (some centres unmarked) [nigerose]: the “degradation (AF detectable on TLC plates)” value in the test with lyase from M. costata and in the test with lyase from M. vulgaris was “no AF detectable” throughout. Besides, in test [2], the “degradation by the lyase” value is listed as “slow rate”.
As for `OC[C@H]1O[C@H](O[C@@H]2[C@@H](O)[C@@H](O[C@@H]3[C@@H](O)[C@@H](O[C@H]4[C@H](O)[C@@H](CO)OC(O)[C@@H]4O)O[C@H](CO)[C@H]3O)O[C@H](CO)[C@H]2O)[C@H](O)[C@@H](O)[C@@H]1O` (some centres unmarked) [nigerotetraose], the “degradation (AF detectable on TLC plates)” value in the test on lyase from M. costata and with lyase from M. vulgaris was “no AF detectable” in each case. In test [2], the “degradation by the lyase” value is given as “not able to degrade”.
For `O=[N+]([O-])c1ccc(O[C@H]2O[C@H](CO)[C@@H](O[C@H]3O[C@H](CO)[C@@H](O[C@H]4O[C@H](CO)[C@@H](O[C@H]5O[C@H](CO)[C@@H](O[C@H]6O[C@H](CO)[C@@H](O[C@H]7O[C@H](CO)[C@@H](O[C@H]8O[C@H](CO)[C@@H](O)[C@H](O)[C@H]8O)[C@H](O)[C@H]7O)[C@H](O)[C@H]6O)[C@H](O)[C@H]5O)[C@H](O)[C@H]4O)[C@H](O)[C@H]3O)[C@H](O)[C@H]2O)cc1` [p-nitrophenyl α-D-maltoheptaose], in the test with lyase from M. costata, the “degradation by the fungal lyase” value was “degraded”.
As to `OC[C@H]1O[C@H](OC[C@H]2O[C@H](O[C@H]3[C@H](O)[C@@H](O)C(O)O[C@@H]3CO)[C@H](O)[C@@H](O)[C@@H]2O)[C@H](O)[C@@H](O)[C@@H]1O` (some centres unmarked) [panose], the “degradation (AF detectable on TLC plates)” value in the test on lyase from M. costata and with lyase from M. vulgaris was “no AF detectable” in each case. Moreover, the “degradation by the lyase” value in test [2] is listed as “slow rate”.
With Glycogen, the “degradation by the fungal lyase” value with lyase from M. costata is reported as “also degraded”. Also, in the test on lyase from M. costata (substrate 10 mg/ml), the “relative degrading rate (maltotetraose = 100%)” value is 128.5%. In test [2], the “substrate concentration at which half of the maximal velocity rate was reached” value turned out to be 3.37 mg/mL and the “AF released” value is 592 nmol. Moreover, in the test with lyase from M. vulgaris, the “Activity (%) (maltotetraose = 100%)” value is reported as 183.3%. Moreover, in test [3] (25 C.), the “ratio of relative reaction rates between Glycogen and Amylopectin (%)” value is on record as 72.4%; the relative reaction rates is listed as 0.592^a. In test [3] (30 C.), the “ratio of relative reaction rates between Glycogen and Amylopectin (%)” value stood at 79.8%; the relative reaction rates is given as 0.904^a. In test [3] (45 C.), the “ratio of relative reaction rates between Glycogen and Amylopectin (%)” value is on record as 158.9%; the relative reaction rates was 1.861^a.
Turning to Soluble starch, in the test on lyase from M. costata (substrate 10 mg/ml), the “relative degrading rate (maltotetraose = 100%)” value is listed as 92.9%. The “Activity (%) (maltotetraose = 100%)” value in the test with lyase from M. vulgaris was determined as 100.5%.
For the compound amylose, the “degradation by the fungal lyase” value with lyase from M. costata is “also degraded”.
As for pullulan, the “degradation (AF detectable on TLC plates)” value with lyase from M. costata and in the test with lyase from M. vulgaris was “no AF detectable” throughout. Besides, in test [2], the “degradation by the lyase” value is reported as “not able to degrade”.

(Values after patent US6632643B2, “Use of α-1,4-glucan lyase for preparation of 1,5-D-hydrofructose” (Danisco A/S, priority 1993, dated 2003).)
